Data published in US20250268953A1, “COMPOSITIONS AND METHODS FOR TREATING DISEASE II” (MICROBA IP PTY LTD, priority 2021, published 2025).
“Also recorded” adds a separate entry of the source.

Tests used:
DSS treated C57Bl/6 mice = experiment: Acute model of DSS induced murine colitis (gut barrier dysfunction); format: in vivo; conditions: 3% DSS six days; for DSS induced weight loss / epithelial injury / pathology / histopathological healing (histopathological score): vs DSS+vehicle
[1] = tested on: IL-23-mediated activation of STAT3; experiment: HEK-Blue IL-23 reporter cell line, STAT3 inducible SEAP reporter; format: cell-based, human; conditions: control Janus kinase inhibitor at 10 μM; rhIL-23 5 ng/mL, 6 hours
Protocol: Then, each seed culture broth was used to inoculate two technical replicates each generating six technical replicates from three biological replicates. The technical replicates were grown until early stationary phase and then cell free culture supernatant was harvested as previously described (Giri et al., 2019). Culture supernatants were size fractionated by passing through a 3 kDa CENTRICON® column according to the manufacturer's (Merck Millipore) instructions. To prepare A. shahii MH21-6 supernatant samples for assay, a seed culture was established from a single colony and grown until early stationary phase. Then, the seed culture broth was used to inoculate two technical replicates. […]
STAT3 activity was assessed using the HEK Blue IL-23 cell line (Invivogen). […] STAT3 regulated SEAP reporter activity was assessed using Quanti Blue solution as recommended by the manufacturer (Invivogen). […] Cytotoxicity was assessed using an MTT assay. […] Cytotoxicity was assessed by measuring absorbance at 540 nm as recommended by the manufacturer (Invitrogen, Thermo Fisher, Australia). […]
STAT3 activity was assessed using the HEK Blue IL-23 cell line (Invivogen). […] STAT3 regulated SEAP reporter activity was assessed using Quanti Blue solution as recommended by the manufacturer (Invivogen). […] Cytotoxicity was assessed using MTT assay. […]

[2] = tested on: IL-6-mediated activation of STAT3; experiment: HEK-Blue IL-6 reporter cell line, STAT3-responsive SEAP reporter; format: cell-based, human; conditions: control Janus kinase inhibitor at 10 μM; IL-6 2 ng/mL, 24 hours
Protocol: STAT3 activity was assessed using the HEK Blue IL-6 cell line (Invivogen). Briefly, 50,000 cells per well were seeded in triplicate in a 96-well plate 24 hours prior to the start of the assay. Bacteria supernatant or sterile bacterial medium were added to the cells at a final concentration of 10% v/v for a 60-minute pretreatment. Then recombinant human IL 6 (R&D systems) was added at a final concentration of 2 ng/mL and the cells were incubated at 37° C. for 24 hours. The ability of the supernatants to suppress IL-6 mediated STAT3 activation was compared to the Janus kinase inhibitor tofacitinib (10 μM). After 24 hours, the STAT3 regulated SEAP reporter activity was assessed using Quanti Blue solution as recommended by the manufacturer (Invivogen). Results are the average of three independent experiments. Cytotoxicity was assessed using the CellTiter-Glo® 2.0 Cell Viability Assay (Promega, Australia) as recommended by the manufacturer.

[3] = Example 3 (G. formicilis) study

**Q.** For C[C@]12C=CC(=O)C=C1CC[C@@H]1[C@@H]2C(=O)C[C@@]2(C)[C@H]1CC[C@]2(O)C(=O)CO [prednisone], which “DSS induced weight loss” value (DSS treated C57Bl/6 mice; Example 1 (A. shahii) study, daily treatment) is on record?
**A.** exacerbated the DSS induced weight loss

**Q.** And the goblet cells (DSS treated C57Bl/6 mice; Example 1 (A. shahii) study, relative to vehicle treated control)?
**A.** ameliorated

**Q.** What about the epithelial injury (DSS treated C57Bl/6 mice; Example 1 (A. shahii) study) of the same compound?
**A.** ameliorated

**Q.** And the “pathology / histopathological healing (histopathological score)” value (from here on “pathology / histopathological healing”) (DSS treated C57Bl/6 mice; Example 1 (A. shahii) study)?
**A.** significant improvement in disease pathology

**Q.** And the epithelial injury (DSS treated C57Bl/6 mice; Example 2 (C. sana) study)?
**A.** Neither prednisone nor F. prausnitzii A2-165 had a significant impact

**Q.** What about the “pathology / histopathological healing” value (DSS treated C57Bl/6 mice; Example 2 (C. sana) study) of the same compound?
**A.** Neither prednisone nor F. prausnitzii A2-165 had a significant impact

**Q.** And the “DSS induced weight loss” value (DSS treated C57Bl/6 mice; [3])?
**A.** exacerbated the DSS induced weight loss

**Q.** And the epithelial injury (DSS treated C57Bl/6 mice; [3])?
**A.** ameliorated

**Q.** And the “pathology / histopathological healing” value (DSS treated C57Bl/6 mice; [3])?
**A.** significant improvement in disease pathology

**Q.** Which “IL-23 mediated activation of STAT3 (SEAP expression)” value [1] does the source give for C[C@@H]1CCN(C(=O)CC#N)C[C@@H]1N(C)c1ncnc2[nH]ccc12 [tofacitinib] here?
**A.** could be prevented; also recorded: inhibited IL-23 mediated SEAP expression

**Q.** And the “IL-6 mediated activation of STAT3” value [2]?
**A.** fully prevented
